# Counter-ions that a name gives are not always drawn. Like-named read-outs stand apart in the source and are kept apart here.
# Target: T1, recombinant human MGAT2 enzyme (Homo sapiens, UniProt Q3SYC2)
# T1 construct: made in house; host or cells: CHO-K1 (Jump-In CHO-K1 Kit, Life Technologies); microsomal fraction used as the enzyme solution
# Experiment: Test for human MGAT2 activity inhibitory action (14C-oleoyl CoA, recombinant enzyme microsomes)
# Assay type: biochemical
# Set-up: key to Potency relative to Comparative Example 1 (higher = more potent): % inhibition = {1−(C−B)/(A−B)}×100, B = 10 μM Comparative Example 1
# Conditions: for IC50: read-out: IC50
# Description: The human MGAT2 gene described in Am. J. Physiol. Endocrinol. Metab. 285: E927-E937, 2003 was expressed using Jump-In™ CHO-K1 Kit (Life technologies) as described in the attached manual. The cells were suspended in a buffer containing Tris-hydrochloric acid (pH 7.4) at a final concentration of 1 mM, 1 mM ethylenediaminetetraacetic acid, 1 mM dithiothreitol, 250 mM sucrose, and complete protease inhibitor cocktail (Roche applied Science), and then disrupted using a Teflon homogenizer (AS ONE Corporation), followed by centrifugation at 130 g for 10 minutes. The supernatant was further centrifuged at 100,000 g for 1 hour to obtain a pellet as microsomes containing the recombinant enzyme, and a solution obtained by suspending this pellet at a protein concentration of about 800 to 1900 μg/ml was used as an MGAT recombinant enzyme solution.
# To a buffer containing 50 mM Tris-hydrochloric acid (pH 7.4), 6 mM magnesium chloride, and 2 mg/mL bovine serum albumin, a test compound was added, and the final concentration of dimethyl sulfoxide was adjusted to 0.3%. Moreover, 2-monooleoyl glycerol, oleoyl CoA, 1-^14C-oleoyl CoA (Perkin Elmer), and orlistat (SIGMA) were added at final concentrations of 50 μM, 50 μM, 2.2 μM, and 8.3 μM, respectively, followed by incubation at 37° C. for 10 minutes. After 10 minutes, the recombinant human MGAT2 enzyme solution was added at a final concentration of 0.67 μg/mL, and the reaction was started, with the amount of the reaction solution being 150 μl. The reaction was carried out at 37° C. for 30 minutes.
# After 30 minutes, the reaction was stopped by adding 300 μl of isopropanol:heptane:water=(80:20:2) to the reaction liquid. Further, 200 μl of heptane and 100 μl of water were added, followed by stirring. Then, 100 μl of the upper layer was transferred to a 96-well plate (Corning), and mixed with 100 μl of liquid scintillator (LumaSafe Plus, Lumac). Then, the ^14C count was quantitatively determined using TopCount NXT™ microplate scintillation luminescence counter (Perkin Elmer).
# The ^14C count in a case where no test compound was added was defined as A, the ^14C count in a case where 10 μM of the compound (Comparative Example 1) of Example No. 8 of WO2008/038768 was added was defined as B, and the ^14C count in the case where the test compound was added was taken as C. For this case, {1−(C−B)/(A−B)}×100(%) was calculated as the human MGAT2 activity inhibition ratio of the test compound (shown in the column named vs Comp. Ex. 1 in the following Table). A greater value of the “vs Comparative Example 1” means that the MGAT2 activity inhibitory action of the compound of Example was higher as compared to the MGAT2 activity inhibitory action of the compound of Comparative Example 1 (i.e., the human MGAT2 activity inhibition ratio was higher). […] Since this evaluation test was conducted for two separate groups, the test results of the two groups are shown separately in Table (First Test) and Table 4 (Second Test).
# Next, the compounds of Examples 25 to 60 of the present invention were also investigated for their pharmacological action by using the same method as in Examples 1 to 24. […] Note that, a comparative evaluation test against the compound of Comparative Example 1 was conducted for each of the compounds of Examples (in every measurement of the inhibitory activity of the compounds of Examples 25 to 60, the inhibitory activity of the compound of Comparative Example 1 was measured). The 50% inhibition concentrations of Comparative Example 1 in the measurement of the inhibitory activities of the compounds of Examples 25 to 60 were shown in Table 5 as “IC50 (nM) of Comparative Example 1.”
# [1] = First Test (Table 3), relative to Comparative Example 1, greater value = higher inhibitory action
# [2] = Table 5, Examples 25 to 60, same method
# [3] = Table 5, relative to Comparative Example 1 measured in the same run
# [4] = Second Test (Table 4), relative to Comparative Example 1
# T1 sequence (Q3SYC2 whole entry): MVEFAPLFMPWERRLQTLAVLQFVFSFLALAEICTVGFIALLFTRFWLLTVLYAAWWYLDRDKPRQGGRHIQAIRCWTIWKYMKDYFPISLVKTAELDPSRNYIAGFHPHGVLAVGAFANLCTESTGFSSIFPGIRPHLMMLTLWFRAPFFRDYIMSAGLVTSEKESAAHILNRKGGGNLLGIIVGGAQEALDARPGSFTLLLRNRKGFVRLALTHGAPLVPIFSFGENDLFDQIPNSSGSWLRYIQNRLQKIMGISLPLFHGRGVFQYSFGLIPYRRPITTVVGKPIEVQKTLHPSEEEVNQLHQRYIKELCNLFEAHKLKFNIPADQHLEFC
Compound,IC50 [2],Potency relative to Comparative Example 1 (higher = more potent) [3],also measured
"O=C(CNCc1ccc(OCc2ccc(C(F)(F)F)cc2)cc1)N1CCc2nc(SC3CCC3)n(-c3ccccc3)c(=O)c2C1 [Example 6, 2-cyclobutylsulfanyl-3-phenyl-6-[2-[[4-[[4-(trifluoromethyl)phenyl]methoxy]phenyl]methylamino]acetyl]-7,8-dihydro-5H-pyrido[4,3-d]pyrimidin-4-one hydrate trifluoroacetate]",–,–,IC50 (First Test (Table 3)): 1.6 nM; Potency relative to Comparative Example 1 (higher = more potent) [1]: 144
"O=C(CCNCCCCOc1ccc(F)cc1)N1CCc2nc(SC3CCC3)n(-c3ccccc3)c(=O)c2C1 [Example 48, 2-cyclobutylsulfanyl-6-[3-[4-(4-fluorophenoxy)butylamino]propanoyl]-3-phenyl-7,8-dihydro-5H-pyrido[4,3-d]pyrimidin-4-one trifluoroacetate]",< 1 nM,>184,–
"O=C(CCCNCc1ccc(C(F)(F)F)cc1)N1CCc2nc(SC3CCC3)n(-c3ccccc3)c(=O)c2C1 [Example 22, 2-cyclobutylsulfanyl-3-phenyl-6-[4-[[4-trifluoromethyl)phenyl]methylamino]butanoyl]-7,8-dihydro-5H-pyrido[4,3-d]pyrimidin-4-one trifluoroacetate]",–,–,IC50 (Second Test (Table 4)): 3.8 nM; Potency relative to Comparative Example 1 (higher = more potent) [4]: 79
"O=C(CNCCCCCOc1ccc(F)cc1)N1CCc2nc(SC3CCC3)n(-c3ccccc3)c(=O)c2C1 [Example 53, 2-cyclobutylsulfanyl-6-[2-[5-(4-fluorophenoxy)pentylamino]acetyl]-3-phenyl-7,8-dihydro-5H-pyrido[4,3-d]pyrimidin-4-one trifluoroacetate]",2 nM,133,–
"O=C(CCNCC(O)COc1ccc(Cl)cc1)N1CCc2nc(SC3CCC3)n(-c3ccccc3)c(=O)c2C1 (stereo not shown) [Example 45, 6-[3-[[3-(4-chlorophenoxy)-2-hydroxy-propyl]amino]propanoyl]-2-cyclobutylsulfanyl-3-phenyl-7,8-dihydro-5H-pyrido[4,3-d]pyrimidin-4-one trifluoroacetate]",1.3 nM,–,–
"O=C(CCNCc1ccccc1)N1CCc2nc(SC3CCC3)n(C[C@H]3CCCO3)c(=O)c2C1 [Example 13, 6-[3-(benzylamino)propanoyl]-2-cyclobutylsulfanyl-3-[[(2R)-tetrahydrofuran-2-yl]methyl]-7,8-dihydro-5H-pyrido[4,3-d]pyrimidin-4-one trifluoroacetate]",–,–,IC50 (Second Test (Table 4)): 6.9 nM; Potency relative to Comparative Example 1 (higher = more potent) [4]: 44
"[2H]c1c([2H])c([2H])c(-n2c(SC3CCC3)nc3c(c2=O)CN(C(=O)CCNCc2ccccc2)CC3)c([2H])c1[2H] [Example 11, 6-[3-(benzylamino)propanoyl]-2-cyclobutylsulfanyl-3-(2,3,4,5,6-pentadeuteriophenyl)-7,8-dihydro-5H-pyrido[4,3-d]pyrimidin-4-one trifluoroacetate]",–,–,IC50 (Second Test (Table 4)): 1.8 nM; Potency relative to Comparative Example 1 (higher = more potent) [4]: 166
"O=C(CCNCc1ccccc1F)N1CCc2nc(SC3CCC3)n(-c3ccccc3)c(=O)c2C1 [Example 18, 2-cyclobutylsulfanyl-6-[3-[(2-fluorophenyl)methylammino]propanoyl]-3-phenyl-7,8-dihydro-5H-pyrido[4,3-d]pyrimidin-4-one trifluoroacetate]",–,–,IC50 (Second Test (Table 4)): 2.3 nM; Potency relative to Comparative Example 1 (higher = more potent) [4]: 134
"O=C(CNCCc1ccccc1)N1CCc2nc(SC3CCC3)n(-c3ccccc3)c(=O)c2C1 [Example 8, 2-cyclobutylsulfanyl-6-[2-(phenylethylamino)acetyl]-3-phenyl-7,8-dihydro-5H-pyrido[4,3-d]pyrimidin-4-one trifluoroacetate]",–,–,IC50 (First Test (Table 3)): 3.5 nM; Potency relative to Comparative Example 1 (higher = more potent) [1]: 63
"O=C(CCNCc1csc2ccccc12)N1CCc2nc(SC3CCC3)n(-c3ccccc3)c(=O)c2C1 [Example 20, 6-[3-(benzothiophen-3-ylmethylamino)propanoyl]-2-cyclobutylsulfanyl-3-phenyl-7,8-dihydro-5H-pyrido[4,3-d]pyrimidin-4-one trifluoroacetate]",–,–,IC50 (Second Test (Table 4)): 1 nM; Potency relative to Comparative Example 1 (higher = more potent) [4]: 300
"O=C(CCNCC(O)COc1ccc(F)cc1)N1CCc2nc(SC3CCC3)n(-c3ccccc3)c(=O)c2C1 (stereo not shown) [Example 44, trifluoroacetate]",1.8 nM,135,–
"O=C(CCNCCNc1ccccc1)N1CCc2nc(SC3CCC3)n(-c3ccccc3)c(=O)c2C1 [Example 38, 6-[3-(2-aminolinoethylamino)propanoyl]-2-cyclobutylsulfanyl-3-phenyl-7,8-dihydro-5H-pyrido[4,3-d]pyrimidin-4-one trifluoroacetate]",1.4 nM,211,–
"O=C(CNCCCOc1ccc(F)cc1)N1CCc2nc(SC3CCC3)n(-c3ccccc3)c(=O)c2C1 [Example 50, 2-cyclobutylsulfanyl-6-[2-[3-(4-fluorophenoxy)propylamino]acetyl]-3-phenyl-7,8-dihydro-5H-pyrido[4,3-d]pyrimidin-4-one trifluoroacetate]",3.7 nM,73,–

# Continued, in another order:
IC50 [2],Potency relative to Comparative Example 1 (higher = more potent) [3],Compound,also measured
2.6 nM,91,"O=C(CNCc1ccc(Oc2cccc(C(F)(F)F)c2)cc1)N1CCc2nc(SC3CCC3)n(-c3ccccc3)c(=O)c2C1 [Example 54, 2-cyclobutylsulfanyl-3-phenyl-6-[2-[[4-[3-(trifluoromethyl)phenoxy]phenyl]methylamino]acetyl]-7,8-dihydero-5H-pyrido[4,3-d]pyrimidin-4-one trifluoroacetate]",–
1.7 nM,125,"O=C(CCNCc1ccc2c(c1)OCO2)N1CCc2nc(SC3CCC3)n(-c3ccccc3)c(=O)c2C1 [Example 28, 6-[3-(1,3-benzodioxol-5-ylmethylamino)propanoyl]-2-cyclobutylsulfanyl-3-phenyl-7,8-dihydro-5H-pyrido[4,3-d]pyrimidin-4-one trifluoroacetate]",–
2.2 nM,117,"O=C(CCNCC#CCOc1ccc(C(F)(F)F)cc1)N1CCc2nc(SC3CCC3)n(-c3ccccc3)c(=O)c2C1 [Example 59, 2-cyclobutylsulfanyl-3-phenyl-6-[3-[4-[4-(trifluoromethyl)phenoxy]but-2-ynylamino]propanoyl]-7,8-dihydro-5H-pyrido[4,3-d]pyrimidin-4-one trifluoroacetate]",–
4.2 nM,64,"O=C(CNCCOc1ccc(F)cc1)N1CCc2nc(SC3CCC3)n(-c3ccccc3)c(=O)c2C1 [Example 51, 2-cyclobutylsulfanyl-6-[2-[2-(4-fluorophenoxy)ethylamino]acetyl]-3-phenyl-7,8-dihydro-5H-pyrido[4,3-d]pyrimidin-4-one trifluoroacetate]",–
< 1 nM,–,"O=C(CCNCCOc1ccc(F)cc1)N1CCc2nc(SC3CCC3)n(-c3ccccc3)c(=O)c2C1 [Example 46, 2-cyclobutylsulfanyl-6-[3-[2-(4-fluorophenoxy)ethylamino]propanoyl]-3-phenyl-7,8-dihydro-5H-pyrido[4,3-d]pyrimidin-4-one trifluoroacetate]",–
